This is an account of results in PubChem BioAssay (NCI).

Some test systems named below: SNB-75 CNS; 786-0 renal; KM12 colon; SN12C renal; OVCAR-8 ovarian; EKVX NSCLC; K-562 leukemia; SNB-19 CNS; NCI/ADR-RES ovarian; SW-620 colon; BT-549 breast; RXF 393 renal; NCI-H460 lung; ACHN renal; TK-10 renal; A549 NSCLC; A498 renal; MALME-3M melanoma; NCI-H226 lung.
What all share (assay): NCI anticancer screen, dose series, 48 h

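The compound was tested at five concentrations on cells cultured in 96-well plates, with a 48-hour exposure period. At the TGI there is no net growth.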 Bounds are passed on as bounds.

With `COc1ccc2c(c1)/C(=C\c1c(C)nc3n1CCS3)C(=O)N2`, the TGI in the assay with SNB-75 CNS is more than 100 µM; in the assay with 786-0 renal, more than 100 µM; in the assay with KM12 colon it was more than 100 µM; in the assay on SN12C renal, 73.8 µM; in the assay with OVCAR-8 ovarian, more than 100 µM; in the assay with EKVX NSCLC, more than 100 µM. Besides, the TGI in the assay with K-562 leukemia is more than 100 µM; in the assay with SNB-19 CNS it was more than 100 µM; with NCI/ADR-RES ovarian it was more than 100 µM; in the assay on SW-620 colon it was more than 100 µM; in the assay on BT-549 breast, 86.3 µM; in the assay with RXF 393 renal, more than 100 µM. The TGI in the assay on NCI-H460 lung was more than 100 µM; with ACHN renal, more than 100 µM; with TK-10 renal it was more than 100 µM; in the assay on A549 NSCLC it was more than 100 µM; in the assay with A498 renal, 99.6 µM.

As for `N#C/C(=C\c1cn(Cc2ccccc2)c2ccccc12)c1nn(-c2ccccc2)c(N)c1C#N`, the TGI with SNB-75 CNS was 15.3 µM; in the assay with 786-0 renal, 21.3 µM; in the assay on KM12 colon, more than 100 µM; in the assay on SN12C renal, 38.7 µM; with OVCAR-8 ovarian it was 21.9 µM; in the assay with EKVX NSCLC, 27.5 µM. The TGI in the assay with K-562 leukemia is more than 100 µM; in the assay on SNB-19 CNS, 28.8 µM; in the assay on MALME-3M melanoma, 47.4 µM; in the assay on NCI/ADR-RES ovarian, 49 µM; with SW-620 colon it was 36.3 µM; with BT-549 breast, 58.3 µM. Also, the TGI in the assay on RXF 393 renal turned out to be 19.2 µM; with NCI-H460 lung it was 25.9 µM; in the assay on ACHN renal it was 75.6 µM; in the assay with TK-10 renal, 35.8 µM; with A549 NSCLC, 24.6 µM; in the assay on A498 renal, 59.3 µM.

As for `C/C1=C/C(C)CC(C)OC(=O)C(C)NC(=O)C(Cc2ccc(O)c(I)c2)N(C)C(=O)CNC(=O)C(C)C1` (stereo unspecified), the TGI is less than 0.0141 µM with SNB-75 CNS; more than 100 µM in the assay with KM12 colon; more than 100 µM in the assay on SN12C renal; more than 100 µM in the assay with OVCAR-8 ovarian; more than 21.9 µM with EKVX NSCLC; more than 100 µM in the assay with SNB-19 CNS. Further, the TGI is 6.22 µM in the assay with MALME-3M melanoma; more than 77.3 µM in the assay on NCI/ADR-RES ovarian; more than 100 µM with SW-620 colon; 0.322 µM with BT-549 breast; less than 0.01 µM in the assay on RXF 393 renal; more than 59.7 µM in the assay on NCI-H460 lung. Moreover, the values for the TGI with A549 NSCLC and in the assay with A498 renal were more than 100 µM and less than 0.0134 µM, respectively.

With `Cc1csc2nc3c(cnn3C)c(=S)n12`, the TGI in the assay with SNB-75 CNS, with 786-0 renal, in the assay on KM12 colon, in the assay on SN12C renal, in the assay on OVCAR-8 ovarian and in the assay on EKVX NSCLC was more than 100 µM throughout. In addition, the TGI in the assay on K-562 leukemia, in the assay with SNB-19 CNS, in the assay with MALME-3M melanoma, in the assay with NCI/ADR-RES ovarian, in the assay on SW-620 colon and with BT-549 breast was more than 100 µM in each case. The TGI with RXF 393 renal, in the assay with NCI-H460 lung, in the assay with ACHN renal, in the assay with TK-10 renal and in the assay with A549 NSCLC was more than 100 µM throughout.

As for `Cc1ccc2c(c1)C(=O)/C(=N/Nc1ccc(Cl)cc1)CCO2`, the TGI with SNB-75 CNS, in the assay with 786-0 renal, in the assay with KM12 colon, with SN12C renal, with OVCAR-8 ovarian and in the assay on EKVX NSCLC was more than 100 µM each time. The TGI in the assay on K-562 leukemia, in the assay with SNB-19 CNS, with MALME-3M melanoma, in the assay with NCI/ADR-RES ovarian, in the assay on SW-620 colon and in the assay on BT-549 breast was more than 100 µM each time. Further, the TGI with NCI-H460 lung, in the assay with ACHN renal, with TK-10 renal, in the assay with A549 NSCLC, in the assay with NCI-H226 lung and in the assay with A498 renal was more than 100 µM throughout.

As for `COc1ccc(OC)c2sc(N3C(=O)/C(=C/c4ccc(Cl)cc4)N=C3c3ccccc3)nc12`, the TGI in the assay on SNB-75 CNS, in the assay on 786-0 renal, in the assay on KM12 colon, in the assay on SN12C renal, in the assay on OVCAR-8 ovarian and in the assay with EKVX NSCLC was more than 100 µM in each case. For the same compound, the TGI in the assay with K-562 leukemia is 86.6 µM; in the assay with SNB-19 CNS it was more than 100 µM; in the assay with MALME-3M melanoma, more than 100 µM; with NCI/ADR-RES ovarian, more than 100 µM; with SW-620 colon it was more than 100 µM; with BT-549 breast, more than 100 µM. Also, the TGI with RXF 393 renal, in the assay on NCI-H460 lung, with ACHN renal, with TK-10 renal, in the assay on A549 NSCLC and in the assay on A498 renal was more than 100 µM throughout.

`Cc1oc2c(c1C)S(=O)(=O)C(C#N)=C(c1ccccc1)N2`: the TGI in the assay on SNB-75 CNS, with 786-0 renal, in the assay with KM12 colon, with SN12C renal, in the assay with OVCAR-8 ovarian and in the assay on EKVX NSCLC was more than 100 µM in each case. Moreover, the TGI in the assay on K-562 leukemia, in the assay on SNB-19 CNS, in the assay on MALME-3M melanoma, in the assay with NCI/ADR-RES ovarian, with SW-620 colon and in the assay on BT-549 breast was more than 100 µM throughout. For the same compound, the TGI in the assay with NCI-H460 lung, in the assay on ACHN renal, with TK-10 renal, with A549 NSCLC, in the assay with NCI-H226 lung and with A498 renal was more than 100 µM each time.

As for `COc1cc(C2SCC(=O)N2c2ccccc2Cl)cc(OC)c1OC` (stereo unspecified), the TGI with 786-0 renal, in the assay with KM12 colon, in the assay on SN12C renal, in the assay on OVCAR-8 ovarian, in the assay on EKVX NSCLC and with K-562 leukemia was more than 100 µM in each case. The TGI in the assay with SNB-19 CNS, in the assay with NCI/ADR-RES ovarian, in the assay on SW-620 colon, in the assay on BT-549 breast, in the assay on NCI-H460 lung and with ACHN renal was more than 100 µM throughout. The TGI in the assay on TK-10 renal, in the assay with A549 NSCLC, in the assay with NCI-H226 lung and with A498 renal was more than 100 µM in each case.
